Assay results taken from patent US8435978B2, “Substituted sulfonamide compounds” (Gruenenthal GmbH, priority 2006, dated 2013).

Columns and labels:
B1R receptor of the rat = biological target: T1, B1R receptor of the rat (Rattus norvegicus, UniProt P97583); assay: Functional study on the bradykinin receptor 1 (B1R), FLIPR Ca2+ assay, rB1R cells; assay type: cell-based; conditions: CHO-K1, test substance 10 μM, agonist Des-Arg9-bradykinin 100 nM, % inhibition compared with the maximum achievable inhibition, read-out: B1R Antagonism, rat [10 μM] % Inhibition
T1 construct: host or cells: CHO K1 cells (Chinese hamster ovary), stably transfected
T1 sequence (P97583 1-337): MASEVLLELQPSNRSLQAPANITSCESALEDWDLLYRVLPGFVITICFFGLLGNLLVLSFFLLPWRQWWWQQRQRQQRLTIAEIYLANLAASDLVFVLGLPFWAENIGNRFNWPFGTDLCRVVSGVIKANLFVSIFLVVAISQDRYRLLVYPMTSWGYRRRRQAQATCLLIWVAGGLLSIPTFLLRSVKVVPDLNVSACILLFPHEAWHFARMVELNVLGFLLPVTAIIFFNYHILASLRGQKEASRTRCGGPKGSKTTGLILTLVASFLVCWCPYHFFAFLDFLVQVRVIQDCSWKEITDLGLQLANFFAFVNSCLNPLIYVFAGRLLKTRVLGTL
Summary of the method: (§1)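 Cells were dye-loaded 60 min at 37 °C, equilibrated 20 min at room temperature, then given 10 μM compound. Ten minutes later the species-matched agonist was added (0.5 nM Lys-Des-Arg9-bradykinin, human; 100 nM Des-Arg9-bradykinin, rat) and Ca2+ influx suppression expressed as % of maximum inhibition.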

human B1R receptor = biological target: T2, human B1R receptor (Homo sapiens, UniProt P46663); assay: Functional study on the bradykinin receptor 1 (B1R), FLIPR Ca2+ assay, hB1R cells; assay type: cell-based; conditions: CHO-K1, test substance 10 μM, agonist Lys-Des-Arg9-bradykinin 0.5 nM, % inhibition compared with the maximum achievable inhibition, read-out: B1R Antagonism, human [10 μM] % Inhibition
T2 construct: host or cells: CHO K1 cells (Chinese hamster ovary), stably transfected
T2 sequence (P46663 1-353): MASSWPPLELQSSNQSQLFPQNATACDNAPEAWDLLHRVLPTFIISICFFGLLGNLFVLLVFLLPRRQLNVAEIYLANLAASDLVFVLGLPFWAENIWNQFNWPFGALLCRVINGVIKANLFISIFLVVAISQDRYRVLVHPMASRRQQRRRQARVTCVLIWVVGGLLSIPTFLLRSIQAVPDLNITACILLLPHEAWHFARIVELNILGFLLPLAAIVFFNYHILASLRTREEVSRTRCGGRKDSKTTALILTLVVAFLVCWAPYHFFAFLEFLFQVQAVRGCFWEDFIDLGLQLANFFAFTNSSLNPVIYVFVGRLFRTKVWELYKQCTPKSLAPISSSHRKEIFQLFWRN
Summary of the method: as §1

Compound	inhibition at 10 µM (B1R receptor of the rat)	inhibition at 10 µM (human B1R receptor)
O=C(COCC1CCCCN1S(=O)(=O)c1c(Cl)cccc1Cl)NCC1CCCN(Cc2ccccc2)C1 (stereo not shown) [Example 314, N-((1-benzylpiperidin-3-yl)methyl)-2-((1-(2,6-dichlorophenylsulfonyl)piperidin-2-yl)methoxy)acetamide]	104%	105%
COc1cc(C)c(S(=O)(=O)N2CCCCC2COCC(=O)NCc2cccnc2)c(C)c1 (stereo not shown) [Example 345, 2-((1-(4-methoxy-2,6-dimethylphenylsulfonyl)piperidin-2-yl)methoxy)-N-(pyridin-3-ylmethyl)acetamide]	95.9%	22.3%
COc1cc(C)c(S(=O)(=O)N2CCCC2COCC(=O)N2CCN(Cc3ccc(Cl)cc3)CC2)c(C)c1 (stereo not shown) [Example 352, 1-(4-(4-chlorobenzyl)piperazin-1-yl)-2-((1-(4-methoxy-2,6-dimethylphenylsulfonyl)pyrrolidin-2-yl)methoxy)ethanone]	104%	104%
CN1CCC(N2CCN(C(=O)COCC3CCCCN3S(=O)(=O)c3c(Cl)cc(C(F)(F)F)cc3Cl)CC2)CC1 (stereo not shown) [Example 108, 2-((1-(2,6-dichloro-4-(trifluoromethyl)phenylsulfonyl)piperidin-2-yl)methoxy)-1-(4-(1-methylpiperidin-4-yl)piperazin-1-yl)ethanone]	102%	102%
Cc1cc(C)c(S(=O)(=O)N2CCCCC2COCC(=O)N2CCCN(Cc3ccccc3)CC2)c(C)c1 (stereo not shown) [Example 31, 1-(4-benzyl-[1,4]diazepan-1-yl)-2-[1-(2,4,6-trimethyl-phenylsulfonyl)-piperidin-2-ylmethoxy]-ethanone]	94.7%	83.8%
COc1ccc(C(CNC(=O)COCC2CCCCN2S(=O)(=O)c2c(C)cc(OC)cc2C)N2CCCC2)cc1 (stereo not shown) [Example 252, 2-((1-(4-methoxy-2,6-dimethylphenylsulfonyl)piperidin-2-yl)methoxy)-N-(2-(4-methoxyphenyl)-2-(pyrrolidin-1-yl)ethyl)acetamide]	97.9%	102%

Other lines, results leading:

inhibition at 10 µM (B1R receptor of the rat)	inhibition at 10 µM (human B1R receptor)	Compound
100%	101%	COc1cc(C)c(S(=O)(=O)N2CCCCC2COCC(=O)NCCCN2CCN(Cc3ccccc3)CC2)c(C)c1 (stereo not shown) [Example 411, N-(3-(4-benzylpiperazin-1-yl)propyl)-2-((1-(4-methoxy-2,6-dimethylphenylsulfonyl)piperidin-2-yl)methoxy)acetamide]
103%	81.9%	COc1cc(C)c(S(=O)(=O)N2CCCC2COCC(=O)N2CCC(N3CCOCC3)CC2)c(C)c1 (stereo not shown) [Example 519, 2-((1-(4-methoxy-2,6-dimethylphenylsulfonyl)pyrrolidin-2-yl)methoxy)-1-(4-morpholinopiperidin-1-yl)ethanone]
98.6%	92.8%	COc1cc(C)c(S(=O)(=O)N2CCCC2COCC(=O)N2CCN(Cc3ccccc3F)CC2)c(C)c1 (stereo not shown) [Example 444, 1-(4-(2-fluorobenzyl)piperazin-1-yl)-2-((1-(4-methoxy-2,6-dimethylphenylsulfonyl)pyrrolidin-2-yl)methoxy)ethanone]
103%	31.9%	COc1cc(C)c(S(=O)(=O)N2CCCCC2COCC(=O)N(Cc2ccccc2)c2cccc(C)n2)c(C)c1 (stereo not shown) [Example 508, N-benzyl-2-((1-(4-methoxy-2,6-dimethylphenylsulfonyl)piperidin-2-yl)methoxy)-N-(6-methylpyridin-2-yl)acetamide]
101%	97.4%	COc1cc(C)c(S(=O)(=O)N2CCCC2COCC(=O)N(Cc2ccccc2)c2cc(C)ccn2)c(C)c1 (stereo not shown) [Example 463, N-benzyl-2-((1-(4-methoxy-2,6-dimethylphenylsulfonyl)pyrrolidin-2-yl)methoxy)-N-(4-methylpyridin-2-yl)acetamide]
